{"source": "patent US12577238B2", "about": "“Compositions and methods for modulating inflammatory and degenerative disorder” (University of Southern California, priority 2018, dated 2026)", "key": {"OSMR and gp130": {"biological_target": "T1, OSMR and gp130 (Homo sapiens, UniProt P40189)", "T1 construct": "FLAG; expressed in transfected cells; host or cells: adult human chondrocytes", "T1 sequence (P40189 23-918)": "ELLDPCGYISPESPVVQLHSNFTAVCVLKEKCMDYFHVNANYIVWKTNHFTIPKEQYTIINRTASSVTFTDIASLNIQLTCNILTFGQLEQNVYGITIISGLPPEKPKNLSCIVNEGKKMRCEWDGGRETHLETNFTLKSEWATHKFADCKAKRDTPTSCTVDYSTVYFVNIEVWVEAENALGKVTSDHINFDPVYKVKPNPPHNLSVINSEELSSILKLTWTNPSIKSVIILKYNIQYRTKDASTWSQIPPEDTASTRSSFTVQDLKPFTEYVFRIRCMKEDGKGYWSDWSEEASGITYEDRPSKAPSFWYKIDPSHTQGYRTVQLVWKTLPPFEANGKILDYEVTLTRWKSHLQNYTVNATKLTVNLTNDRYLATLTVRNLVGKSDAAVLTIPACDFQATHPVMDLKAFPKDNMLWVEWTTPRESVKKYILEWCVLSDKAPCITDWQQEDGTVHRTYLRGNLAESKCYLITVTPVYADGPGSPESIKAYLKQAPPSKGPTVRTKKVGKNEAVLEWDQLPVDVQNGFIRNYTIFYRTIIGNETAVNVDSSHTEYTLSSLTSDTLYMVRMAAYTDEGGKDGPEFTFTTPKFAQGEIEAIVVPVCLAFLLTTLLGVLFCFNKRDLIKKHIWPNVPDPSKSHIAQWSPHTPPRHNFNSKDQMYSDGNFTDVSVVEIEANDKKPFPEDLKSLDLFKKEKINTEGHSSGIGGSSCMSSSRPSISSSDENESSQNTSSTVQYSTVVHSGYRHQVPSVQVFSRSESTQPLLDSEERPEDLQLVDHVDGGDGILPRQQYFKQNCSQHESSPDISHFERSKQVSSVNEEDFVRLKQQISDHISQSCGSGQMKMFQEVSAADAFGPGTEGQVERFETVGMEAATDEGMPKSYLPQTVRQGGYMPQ", "experiment": "Receptor competition, gp130-Flag pull-down, OSMR", "format": "cell-based", "settings": "in the presence of OSM; IP-FLAG, WB-OSMR", "method": "Adult human chondrocytes transfected with gp130-Flag were incubated with various concentrations of RCGD 423 in the presence of IL-6 or OSM; levels of immoprecipitated IL-6R or OSMR were used to calculate the dissociation constant (Kd).\nAdult human chondrocytes; IP-FLAG AB (transfected with gp130 FLAG plasmid), WB-OSMR.\nThis property would be of great interest due to the pro-inflammatory and pro-catabolic effects of these cytokines in the joint space. […] To assess whether RCGD 423 could directly compete for gp130 occupancy, human adult articular chondrocytes were transfected with tagged gp130 and then pulled down associated proteins±RCGD 423 and/or IL-6."}, "[1]": {"test_system": "adult pig articular chondrocytes", "experiment": "Proteins mediating pro-inflammatory signals with or without OSM", "format": "cell-based", "text": "(§1) Firstly, RCGD 423 was a hit from a library; this made the depth of the discovery surrounding the technology less comprehensive. Additionally, the physical properties of RCGD 423 (solubility, potency, functional groups) could be improved. Significant gains in these areas could potentially result in a first-in-class injectable for the treatment of post-traumatic OA. Moreover, the potential risks associated with promoting MYC stabilization and proliferation in gp130^+ cells as well as large increases in active STAT3 protein was of concern. […] These compounds were then screened in adult pig articular chondrocytes and cartilage explants, seeking compounds that could inhibit the catabolic effects of OSM but not drive increases in MYC and pSTAT3 protein levels. […] Together, these preliminary data identify CX-011 (B8) as a highly anti-inflammatory, anti-catabolic alternative to RCGD 423, with increased “drug-like” properties and reduced potential molecular liabilities."}, "[2]": {"test_system": "pig articular cartilage explants", "experiment": "Matrix degradation assay, OSM-driven, pig articular cartilage explants", "format": "cell-based", "method": "FIG. 22A-C show matrix degradation assays.\n72 hour exposure to the drug and OSM. […] Effect is concentration dependent and increases with increase in drug concentration.\nas §1"}, "gp130 [3]": {"biological_target": "T2, gp130 (Homo sapiens, UniProt P40189)", "T2 construct": "endogenous in cells; host or cells: adult human articular chondrocytes (three donors)", "T2 sequence (P40189 23-918)": "T1 sequence (P40189 23-918)", "experiment": "OSM-mediated activation of gp130 in adult human articular chondrocytes", "format": "cell-based", "settings": "three independent donors", "text": "423F is the positive control drug. Adult human articular chondrocytes from three independent donors were used to generate the results.\nAdult human articular chondrocytes from three independent donors were used to generate the results.\nAdult human articular chondrocytes from three independent donors were used."}, "gp130 [4]": {"biological_target": "T3, gp130 (Rattus norvegicus, UniProt P40190)", "T3 construct": "from tissue; host or cells: rat knee joint in vivo (Sprague-Dawley wild-type in the CFA model)", "T3 sequence (P40190 23-918)": "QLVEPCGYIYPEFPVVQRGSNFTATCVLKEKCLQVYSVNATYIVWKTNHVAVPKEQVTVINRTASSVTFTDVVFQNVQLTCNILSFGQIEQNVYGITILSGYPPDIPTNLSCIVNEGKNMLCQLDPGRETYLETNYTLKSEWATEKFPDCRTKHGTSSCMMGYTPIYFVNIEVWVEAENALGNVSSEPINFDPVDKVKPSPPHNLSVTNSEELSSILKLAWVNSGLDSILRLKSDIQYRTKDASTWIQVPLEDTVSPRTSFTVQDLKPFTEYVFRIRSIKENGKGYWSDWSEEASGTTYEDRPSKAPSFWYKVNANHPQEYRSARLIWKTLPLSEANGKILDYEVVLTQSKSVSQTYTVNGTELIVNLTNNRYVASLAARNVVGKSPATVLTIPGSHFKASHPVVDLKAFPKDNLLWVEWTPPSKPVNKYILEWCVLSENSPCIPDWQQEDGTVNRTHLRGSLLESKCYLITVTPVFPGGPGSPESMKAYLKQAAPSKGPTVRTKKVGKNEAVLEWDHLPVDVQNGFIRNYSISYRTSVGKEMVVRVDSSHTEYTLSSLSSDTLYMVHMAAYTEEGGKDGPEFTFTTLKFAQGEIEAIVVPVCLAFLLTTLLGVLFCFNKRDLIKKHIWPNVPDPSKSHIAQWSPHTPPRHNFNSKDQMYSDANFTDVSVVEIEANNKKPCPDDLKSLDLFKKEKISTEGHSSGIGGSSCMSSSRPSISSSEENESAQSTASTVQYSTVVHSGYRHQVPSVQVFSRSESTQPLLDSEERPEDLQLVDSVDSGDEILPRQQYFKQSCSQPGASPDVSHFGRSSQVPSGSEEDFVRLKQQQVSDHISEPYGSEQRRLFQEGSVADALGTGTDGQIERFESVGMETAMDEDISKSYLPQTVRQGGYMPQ", "experiment": "CFA-induced systemic inflammatory response in rats, intraarticular drug", "format": "in vivo", "method": "Rat (Sprague-Dawley wild-type) were injected with Complete Freund's Adjuvant (CFA) to induce systemic inflammatory response. Drug (805) was injected intraarticularly; multiple doses (A and B, N=3)."}, "adult synovial cells": {"test_system": "adult synovial cells", "experiment": "OSM-mediated cytokine secretion by adult synovial cells", "format": "cell-based", "settings": "10 μM", "method": "Adult synovial cells from three independent donors were used. Molecule 805 was used at 10 μM."}, "[5]": {"experiment": "Oral single dose, synovial inflammation in rat joints", "format": "in vivo", "settings": "oral administration of a single dose"}, "[6]": {"experiment": "Medial meniscal tear surgery, intra-articular injection", "format": "in vivo", "settings": "following medial meniscal tear surgery"}, "[7]": {"experiment": "Survival of NZM.2328 female mice (lupus nephritis-like syndrome)", "format": "in vivo", "settings": "intraperitoneally twice weekly, 10 mg/kg"}}, "note": "Entries after “also recorded” stand apart in the source; their conditions may differ.", "data": [{"smiles": "Cc1ccc(-c2csc(NC(=O)c3ccccn3)n2)cc1", "note": "[B805]", "values": [{"measurement": "competition with OSMR for gp130 occupancy / OSMR-gp130 interaction", "setting": "OSMR and gp130", "result": "disrupts the interaction between OSMR and gp130 in a concentration-dependent manner"}, {"measurement": "increases in proteins mediating pro-inflammatory signals", "setting": "[1]; in the presence of OSM", "result": "strongly inhibits increases in these proteins in the presence of OSM"}, {"measurement": "endogenous levels of proteins mediating pro-inflammatory signals", "setting": "[1]; without OSM", "result": "little effect"}, {"measurement": "breakdown of collagen and aggrecan (aggrecan-neo, collagen-neo epitopes)", "setting": "[2]; driven by OSM", "result": "strongly prevent the breakdown of collagen and aggrecan; also recorded: prevents the breakdown of collagen and aggrecan"}, {"measurement": "increase in catalytic enzymes / induction of proteolytic gene expression", "setting": "[2]; driven by OSM", "result": "prevents"}, {"measurement": "breakdown of collagen and aggrecan (aggrecan-neo, collagen-neo epitopes)", "setting": "[2]; fresh pig cartilage explants, 72 hour exposure to drug and OSM", "result": "strongly prevents the breakdown of collagen and aggrecan"}, {"measurement": "OSM-mediated activation of downstream effector JAK2", "setting": "gp130 [3]", "result": "strongly inhibits"}, {"measurement": "OSM-mediated activation of gp130", "setting": "gp130 [3]", "result": "inhibit OSM-mediated activation of gp130; also recorded: strongly inhibits OSM-mediated activation of gp130"}, {"measurement": "activation of gp130 in sick animals", "setting": "gp130 [4]", "result": "prolonged effect preventing activation gp130 in sick animals"}, {"measurement": "inflammatory response in vivo", "setting": "gp130 [4]; multiple doses, N=3", "result": "inhibits inflammatory response in vivo in a dose-dependent manner"}, {"measurement": "OSM-mediated secretion of IL-6", "setting": "adult synovial cells", "result": "strongly inhibits"}, {"measurement": "OSM-mediated secretion of TNF-α", "setting": "adult synovial cells", "result": "strongly inhibits"}, {"measurement": "synovial inflammation", "setting": "[5]", "result": "reduced synovial inflammation in rat joints"}, {"measurement": "cartilage degeneration", "setting": "[6]", "result": "reduces cartilage degeneration"}, {"measurement": "survival", "setting": "[7]", "result": "survive longer"}]}]}
